Earlier results on two compounds are cited in PMC12649378, “Comparative Pharmacokinetics and Safety of a Micellar Chrysin–Quercetin–Rutin Formulation: A Randomized Crossover Trial” (Antioxidants, 2025).

Counter-ions that a name gives are not always drawn. Some results are limits rather than exact numbers.

Assay in data set [1]: not given
This is another data set of the same source.

As a reminder, the aqueous solubility is the dissolved amount per volume that the medium holds. `O=c1cc(-c2ccccc2)oc2cc(O)cc(O)c12` [chrysin, 5,7-dihydroxyflavone]: the peak plasma levels (humans, 400 mg of unformulated chrysin) is 3 to 16 ng/mL. Besides, in data set [1], the aqueous solubility is recorded as under 1 µg/mL and the “weak acidity (pH)” value is listed as “≈ 6.7”.
For the compound `O=c1cc(-c2ccccc2)oc2cc(OS(=O)(=O)O)cc(O)c12` [chrysin sulfate], the “circulating metabolite concentration exceeding parent chrysin concentrations” value (in vivo) is recorded as ~ 30 fold.
